Here are results for 17 molecules from patent US9346809B2 (LEO PHARMA A/S, priority 2009, dated 2016).

Like-named read-outs stand apart in the source and are kept apart here.

Format in all cases: biochemical
The target of assay [1] is T1, JAK1 (aa 850-1154, catalytic domain, GST-tag) (Homo sapiens, UniProt P23458).
T1 construct: JAK1 (aa 850-1154) and TYK2 (aa 871-1187) are expressed with an N-terminally fused GST-tag; GST (N); purchased Carna Biosciences, Inc; host or cells: baculovirus expression system
T1 sequence (P23458 850-1154): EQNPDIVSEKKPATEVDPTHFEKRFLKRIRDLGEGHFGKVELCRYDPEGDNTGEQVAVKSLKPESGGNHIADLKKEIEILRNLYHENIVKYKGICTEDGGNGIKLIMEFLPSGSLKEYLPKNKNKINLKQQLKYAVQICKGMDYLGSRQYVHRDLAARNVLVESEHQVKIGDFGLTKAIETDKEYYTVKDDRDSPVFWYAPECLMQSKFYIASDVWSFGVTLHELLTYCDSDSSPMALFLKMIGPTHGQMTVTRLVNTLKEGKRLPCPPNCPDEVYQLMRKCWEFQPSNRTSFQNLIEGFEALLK
The experiment in a line: JAK kinase assay (HTRF, phosphorylation of TK substrate-biotin), JAK1. As to conditions: ATP at Km (7 μM), read-out: JAK1 kinase inhibitory activity (EC50 indicator). Here is the method:
(§1) Human baculovirus-expressed JAK1, 2, 3 and TYK2 were purchased from Carna Biosciences, Inc. All four purified enzymes contain only the catalytic domain. JAK1 (aa 850-1154) and TYK2 (aa 871-1187) are expressed with an N-terminally fused GST-tag, and JAK2 and JAK3 with an N-terminally fused His-tag.
(§2) Inhibition of phosphorylation of a synthetic peptide was measured in an HTRF-based assay using the TK substrate-Biotin from the Cisbio HTRFKinEASE TK kit. First, 2 μl of TK solution (TK substrate-biotin in kinase buffer [1× enzymatic buffer from HTRFKinEASE TK kit, 1 mM DTT]) is added to a plate containing 1 μl prediluted compound (final assay concentration DMSO: 0.75%). Then, 5 μl kinase-ATP mix (prepared in kinase buffer) is added to the wells and the plates are incubated at RT for 20-30 min. For all four kinases a concentration of ATP that corresponded to the Km for ATP was used. The final concentrations of buffers, substrate, kinase and ATP were: JAK1: 50 mM Hepes buffer pH 7.0, 0.01% BSA, 10 mM MgCl2, 1 mM DTT, 7 μM ATP, 50 nM SEB, 1 μM TK Substrate-Biotin and 5 ng JAK1; JAK2: 50 mM Hepes buffer pH 7.0, 0.01% BSA, 5 mM MgCl2, 1 mM DTT, 4 μM ATP, 1 μM TK Substrate-Biotin and 0.1 ng JAK2; JAK3: 50 mM Hepes buffer pH 7.0, 0.01% BSA, 5 mM MgCl2, 1 mM DTT, 2 μM ATP, 1 μM TK Substrate-Biotin and 0.3 ng JAK3; TYK2: 50 mM Hepes buffer pH 7.0, 0.01% BSA, 5 mM MgCl2, 1 mM DTT, 13 μM ATP, 50 nM SEB, 1 μM TK Substrate-Biotin and 0.8 ng TYK2. Thereafter, the kinase reaction is stopped by adding 4 μl detection mix (final concentrations: 50 mM Hepes buffer pH 7.0, 0.01% BSA, 0.8 M KF, 20 mM EDTA, 42 nM Streptavidin-XL665 and 1:400 STK Ab Cryptate) and the plates are incubated overnight in the dark. The HTRF signal is read using an Envision plate reader.
(§3) In Table 1 selected JAK kinase inhibitory activities are listed with the following indicators: I: EC50<100 nM, II: 100 nM≦EC50≦500 nM and III: EC50>500 nM
Background: In TR-FRET formats the signal depends on donor and acceptor labels being close together.

Assay [2] concerns the target T2, JAK2 (catalytic domain, His-tag) (Homo sapiens, UniProt O60674).
T2 construct: All four purified enzymes contain only the catalytic domain; His (N); purchased Carna Biosciences, Inc; host or cells: baculovirus expression system
The assay can be described thus: JAK kinase assay (HTRF, phosphorylation of TK substrate-biotin), JAK2. As to conditions: ATP at Km (4 μM), read-out: JAK2 kinase inhibitory activity (EC50 indicator). Here is the method: as §1, §2, §3

For assay [3], the target named is T3, JAK3 (catalytic domain, His-tag) (Homo sapiens, UniProt P52333).
T3 construct: All four purified enzymes contain only the catalytic domain; His (N); purchased Carna Biosciences, Inc; host or cells: baculovirus expression system
T3 sequence (P52333 822-1111 limits assumed): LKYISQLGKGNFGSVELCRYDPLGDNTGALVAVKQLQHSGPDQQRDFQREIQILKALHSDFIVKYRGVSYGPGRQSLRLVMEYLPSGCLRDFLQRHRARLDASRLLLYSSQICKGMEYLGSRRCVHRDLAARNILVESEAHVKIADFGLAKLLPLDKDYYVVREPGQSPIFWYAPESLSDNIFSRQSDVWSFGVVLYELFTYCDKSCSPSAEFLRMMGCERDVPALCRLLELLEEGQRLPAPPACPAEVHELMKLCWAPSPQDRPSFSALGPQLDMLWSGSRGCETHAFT
The experiment in a line: JAK kinase assay (HTRF, phosphorylation of TK substrate-biotin), JAK3. To be noted: ATP at Km (2 μM), read-out: JAK3 kinase inhibitory activity (EC50 indicator). Here is the method:
as §1, §2, §3

The target of assay [4] is T4, TYK2 (aa 871-1187, catalytic domain, GST-tag) (Homo sapiens, UniProt P29597).
T4 construct: JAK1 (aa 850-1154) and TYK2 (aa 871-1187) are expressed with an N-terminally fused GST-tag; GST (N); purchased Carna Biosciences, Inc; host or cells: baculovirus expression system
T4 sequence (P29597 871-1187): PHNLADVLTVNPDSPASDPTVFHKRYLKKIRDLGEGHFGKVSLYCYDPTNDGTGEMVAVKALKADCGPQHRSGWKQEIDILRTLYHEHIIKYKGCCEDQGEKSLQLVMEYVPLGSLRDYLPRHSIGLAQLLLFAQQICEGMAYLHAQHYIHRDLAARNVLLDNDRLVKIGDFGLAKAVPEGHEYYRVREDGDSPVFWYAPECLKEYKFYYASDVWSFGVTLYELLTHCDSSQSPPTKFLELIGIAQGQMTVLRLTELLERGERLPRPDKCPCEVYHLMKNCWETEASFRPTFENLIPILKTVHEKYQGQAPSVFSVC
The experiment in a line: JAK kinase assay (HTRF, phosphorylation of TK substrate-biotin), TYK2. To be noted: ATP at Km (13 μM), read-out: TYK2 kinase inhibitory activity (EC50 indicator). Here is the method: as §1, §2, §3

T2 sequence (O60674 849-1124 limits assumed): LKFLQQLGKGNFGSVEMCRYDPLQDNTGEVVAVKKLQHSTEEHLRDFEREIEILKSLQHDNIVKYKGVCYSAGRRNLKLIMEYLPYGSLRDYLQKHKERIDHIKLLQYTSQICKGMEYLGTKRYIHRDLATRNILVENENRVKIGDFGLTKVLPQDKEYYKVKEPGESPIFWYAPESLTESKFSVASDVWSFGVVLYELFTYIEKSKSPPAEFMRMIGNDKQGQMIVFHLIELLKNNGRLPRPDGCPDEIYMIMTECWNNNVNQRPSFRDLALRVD

The term EC50 denotes the concentration at which the effect is half-maximal. Turning to `N#Cc1cc(CC(=O)N2CCN(c3ncnc4[nH]ccc34)CC23CC3)ccc1F` [Example 66, 2-Fluoro-5-{2-oxo-2-[7-(7H-pyrrolo[2,3-d]pyrimidin-4-yl)-4,7-diaza-spiro[2.5]oct-4-yl]-ethyl}-benzonitrile], the EC50 was under 100 nM in assay [1], under 100 nM in assay [2], 100 to 500 nM in assay [3] and over 500 nM in assay [4].

As for `CN(CC#N)C(=O)C1(C(=O)N2CCN(c3ncnc4[nH]ccc34)CC23CC3)CC1` [Example 86, 1-[7-(7H-Pyrrolo[2,3-d]pyrimidin-4-yl)-4,7-diaza-spiro[2.5]octane-4-carbonyl]-cyclopropanecarboxylic acid cyanomethyl-methyl-amide], the concentration for a half-maximal effect (EC50) in assay [1] is over 500 nM; in assay [2], 100 to 500 nM; in assay [3], over 500 nM; in assay [4], over 500 nM.

Consider `N#CCOc1ccc(C(=O)N2CCN(c3ncnc4[nH]ccc34)CC23CC3)cc1` [Example 68, {4-[7-(7H-Pyrrolo[2,3-d]pyrimidin-4-yl)-4,7-diaza-spiro[2.5]octane-4-carbonyl]-phenoxy}-acetonitrile], for which the EC50 was under 100 nM in assay [1], under 100 nM in assay [2], 100 to 500 nM in assay [3] and 100 to 500 nM in assay [4].

As to `N#Cc1csc(C(=O)N2C3CCC2CN(c2ncnc4[nH]ccc24)C3)c1` [Example 199, 5-[3-(7H-Pyrrolo[2,3-d]pyrimidin-4-yl)-3,8-diaza-bicyclo[3.2.1]octane-8-carbonyl]-thiophene-3-carbonitrile], the EC50 in assay [1] was under 100 nM; in assay [2], under 100 nM; in assay [3], under 100 nM; in assay [4], 100 to 500 nM.

Take `Cc1ccsc1C(=O)N1CCN(c2ccnc3[nH]ccc23)CC12CC2` [Example 228, (3-Methyl-thiophen-2-yl)-[7-(1H-pyrrolo[2,3-b]pyridin-4-yl)-4,7-diaza-spiro[2.5]oct-4-yl]-methanone]: the half-maximal effective concentration (EC50) in assay [1] (HTRF assay) is 100 to 500 nM; in assay [2] (HTRF assay), under 100 nM; in assay [3] (HTRF assay), over 500 nM; in assay [4] (HTRF assay) it was over 500 nM.

Consider `NS(=O)(=O)c1csc(C(=O)N2CCN(c3ncnc4[nH]ccc34)CC23CC3)c1` [Example 372, 5-[7-(7H-Pyrrolo[2,3-d]pyrimidin-4-yl)-4,7-diaza-spiro[2.5]octane-4-carbonyl]-thiophene-3-sulfonic acid amide], for which the half-maximal effective concentration (EC50) in assay [1] (HTRF assay), in assay [2] (HTRF assay), in assay [3] (HTRF assay) and in assay [4] (HTRF assay) was under 100 nM in each case.

For the molecule `COc1cc(C(=O)N2CCN(c3ncnc4[nH]ccc34)CC23CC3)ccc1S(N)(=O)=O` [Example 378, 2-Methoxy-4-[7-(7H-pyrrolo[2,3-d]pyrimidin-4-yl)-4,7-diaza-spiro[2.5]octane-4-carbonyl]-benzenesulfonamide], the EC50 in assay [1] (HTRF assay), in assay [2] (HTRF assay), in assay [3] (HTRF assay) and in assay [4] (HTRF assay) was under 100 nM throughout.

On to `O=C(c1cccc(C(F)(F)F)c1)N1CCN(c2ncnc3[nH]ccc23)CC12CC2` [Example 20, [7-(7H-Pyrrolo[2,3-d]pyrimidin-4-yl)-4,7-diazaspiro[2.5]oct-4-yl]-(3-trifluoromethylphenyl)methanone], for which the EC50 was under 100 nM in assay [1], under 100 nM in assay [2], 100 to 500 nM in assay [3] and 100 to 500 nM in assay [4].

On to `O=C(c1cccc2cccnc12)N1CCN(c2ncnc3[nH]ccc23)CC12CC2` [Example 164, [7-(7H-Pyrrolo[2,3-d]pyrimidin-4-yl)-4,7-diaza-spiro[2.5]oct-4-yl]-quinolin-8-yl-methanone], for which the half-maximal effective concentration (EC50) was 100 to 500 nM in assay [1], under 100 nM in assay [2], 100 to 500 nM in assay [3] and over 500 nM in assay [4].

As to `Cc1ccc2sc(C(=O)N3CCN(c4ccnc5[nH]ccc45)CC34CC4)cc2c1` [Example 234, (5-Methyl-benzo[b]thiophen-2-yl)-[7-(1H-pyrrolo[2,3-b]pyridin-4-yl)-4,7-diaza-spiro[2.5]oct-4-yl]-methanone], the half-maximal effective concentration (EC50) in assay [1] (HTRF assay) was 100 to 500 nM; in assay [2] (HTRF assay), 100 to 500 nM; in assay [3] (HTRF assay) it was over 500 nM; in assay [4] (HTRF assay) it was over 500 nM.

Regarding `O=C(c1ccncc1)N1[C@@H]2CC[C@@H]1CN(c1ncnc3[nH]ccc13)C2` [Example 242, Pyridin-4-yl-[3-(7H-pyrrolo[2,3-d]pyrimidin-4-yl)-3,8-diaza-bicyclo[3.2.1]oct-8-yl]-methanone], the EC50 in assay [1] (HTRF assay) is under 100 nM; in assay [2] (HTRF assay) it was under 100 nM; in assay [3] (HTRF assay) it was 100 to 500 nM; in assay [4] (HTRF assay), over 500 nM.

Consider `N#Cc1cccc(C(=O)N2CCN(c3nc(N)nc4[nH]ccc34)CC23CC3)c1` [Example 304, 3-[7-(2-Amino-7H-pyrrolo[2,3-d]pyrimidin-4-yl)-4,7-diaza-spiro[2.5]octane-4-carbonyl]-benzonitrile], for which the EC50 is under 100 nM in assay [1] (HTRF assay), under 100 nM in assay [2] (HTRF assay), under 100 nM in assay [3] (HTRF assay) and 100 to 500 nM in assay [4] (HTRF assay).

Regarding `N#Cc1cccc(CC(=O)N2CCN(c3nc(N)nc4[nH]ccc34)CC23CC3)c1` [Example 311, 3-{2-[7-(2-Amino-7H-pyrrolo[2,3-d]pyrimidin-4-yl)-4,7-diaza-spiro[2.5]oct-4-yl]-2-oxo-ethyl}-benzonitrile], the half-maximal effective concentration (EC50) is 100 to 500 nM in assay [1] (HTRF assay), 100 to 500 nM in assay [2] (HTRF assay), 100 to 500 nM in assay [3] (HTRF assay) and over 500 nM in assay [4] (HTRF assay).

As for `N#CC1(C(=O)N2CCN(c3ncnc4[nH]ccc34)CC23CC3)CCCC1` [Example 114, 1-[7-(7H-Pyrrolo[2,3-d]pyrimidin-4-yl)-4,7-diaza-spiro[2.5]octane-4-carbonyl]-cyclopentanecarbonitrile], the 50% effective concentration (EC50) in assay [1] was 100 to 500 nM; in assay [2], under 100 nM; in assay [3], 100 to 500 nM; in assay [4] it was over 500 nM.

`COC(=O)c1cc2c(N3CCN(C(=O)Cc4cccc(C#N)c4)C4(CC4)C3)ncnc2[nH]1` [Example 123, 4-{4-[2-(3-Cyano-phenyl)-acetyl]-4,7-diaza-spiro[2.5]oct-7-yl}-7H-pyrrolo[2,3-d]pyrimidine-6-carboxylic acid methyl ester]: the 50% effective concentration (EC50) in assay [1], in assay [2], in assay [3] and in assay [4] was over 500 nM each time.

`CS(=O)(=O)c1ccc2[nH]c(C(=O)N3CCN(c4ncnc5[nH]ccc45)CC34CC4)cc2c1` [Example 365, (5-Methanesulfonyl-1H-indol-2-yl)-[7-(7H-pyrrolo[2,3-d]pyrimidin-4-yl)-4,7-diaza-spiro[2.5]oct-4-yl]-methanone]: the concentration for a half-maximal effect (EC50) in assay [1] (HTRF assay), in assay [2] (HTRF assay), in assay [3] (HTRF assay) and in assay [4] (HTRF assay) was under 100 nM throughout.

As for `O=C(c1ccccc1)N1CCN(c2ncnc3[nH]ccc23)CC12CC2` [Example 27, Phenyl-[7-(7H-pyrrolo[2,3-d]pyrimidin-4-yl)-4,7-diazaspiro[2.5]oct-4-yl]methanone], the EC50 in assay [1] was under 100 nM; in assay [2] it was under 100 nM; in assay [3], 100 to 500 nM; in assay [4], 100 to 500 nM.
